Earlier results as cited in patent publication US12070503B2, “Transdermal carrier” (priority 2014, dated 2024).
One block for each compound: values may come before it.

Legend:
[1] = difficult to measure, considered generally
HSV-infected cells = conditions: compared with alternatives such as Abreva
hair follicles = conditions: concentrations of 2% and 5%; published studies

- half-life [1]: less than 30 minutes
Compound: C[C@H](CCC(=O)O)[C@H]1CC[C@H]2[C@@H]3CC[C@@H]4C[C@H](O)CC[C@]4(C)[C@H]3C[C@H](O)[C@]12C [DCA, deoxycholic acid]

Compound: Nc1nc2c(ncn2CCC(CO)CO)c(=O)[nH]1 [Penciclovir, penciclovir]
- effectiveness against HSV-infected cells (HSV-infected cells): more effective

Compound: Nc1cc(N2CCCCC2)nc(N)[n+]1[O-] [minoxidil]
- treatment time before evidence of hair growth was demonstrated (hair follicles): > 8 months
